BindingDB's records for doi:10.1016/j.ejmech.2021.113585 (Fudan University, 2021)

Assay: Agonist activity at RORgammat in C57 mouse CD4+ T cells assessed as induction of Th17 cells differentiation by measuring increase in IL17 production measured after 4 days by flow cytometry analysis

EC50 [nM] | Compound
220 | CC(=O)N1CCN(c2ccc3c(c2)CCN(S(=O)(=O)N(C)Cc2c(F)cccc2Cl)C3)CC1
230 | CC(=O)N1CCN(c2ccc3c(c2)CCN(S(=O)(=O)N(C)Cc2ccccc2Cl)C3)CC1
1120 | CC(=O)N1CCN(c2ccc3c(c2)CCN(S(=O)(=O)N(C)Cc2ccccc2C(F)(F)F)C3)CC1
